Laboratory results from patent publication US5632983A, “Method for treating secondary immunodeficiency” (University of South Florida, priority 1994, dated 1997).
No end group written: not given here.

How the values were obtained:
[1] = Spleen weight in hydrocortisone-treated aged mice; type: in vivo; conditions: NCM 50 U of IL-2 per mouse/day; Thymosin α1 5 or 20 microgram/mouse/day (pooled); i.p. 5 days, day 8
Experimental: (§1) Female BALB/c (Life Science, St. Petersburg, Fla.) aged retired breeder mice (8-9 months) whose thymuses had begun to involute were employed in in vivo tests. Mice were weight matched and randomly pooled in groups of five. Animals were fed standard laboratory diets with drinking water ad lib. All mice, with exception of a control group, were treated intraperitoneally (i.p.) with hydrocortisone (5 mg/mouse in 0.1 ml 0.9% sodium chloride) for two consecutive days to induce a chemical thymectomy and reduction of spleen weight.
(§2) Each treatment group had five (5) animals and each experiment was repeated 2-5 times. Treatment was initiated intraperitoneally (i.p.), on Day 3 and continued once per day for a total of five (5) days. Treatment groups were injected with one of the following in vivo treatments as indicated in the text:
(§3) On day 8, the mice were weighed, sacrificed by cervical dislocation, and their spleens and thymuses removed and weighed. The organs were minced, the residual erythrocytes were lysed using ammonium chloride (Mishell and Shiigi, "Selected Methods in Cellular Immunology", 1981), and the cells counted.
(§4) Animals, hydrocortisone treatment, and experimental injections were as described in the general methods. The NCM was injected at 50 U of IL-2 per mouse/day. The Thymosin α1 (T alpha-1 or Tα1) was injected at 5 or 20 microgram/mouse/day.

[2] = Thymus weight in hydrocortisone-treated aged mice; type: in vivo; conditions: NCM 50 U of IL-2 per mouse/day; Thymosin α1 5 or 20 microgram/mouse/day (pooled); i.p. 5 days, day 8
Experimental: as §1, §2, §3, §4

[3] = tested on: thymocytes; assay: Proliferative response (3H-thymidine) of thymocytes in vitro after in vivo treatment, hydrocortisone induced thymic involution in aged mice
Experimental: (§5) The model of hydrocortisone induced thymic involution in aged mice was used unless otherwise indicated (Hadden et al., 1992b).
as §1, §2, §3
(§6) The proliferative response of the cells to various substances was then determined. A sample of cells was prepared for cell culture at 37° C., 5% CO2 in RPMI 1640 medium with 5% fetal bovine serum, penicillin (100 U/ml), streptomycin (100 μg/ml) and 2-mercaptoethanol (2×10^-5 M). The cells were plated in 0.2 ml microwell plates in quadruplicate at a concentration of 1.5×10^6 /ml and incubated for 72 hours with one of the following as indicated in the text:
(§7) To measure DNA synthesis, the culture was terminated with an 18 hours pulse of tritiated thymidine (^3 H-Thymidine; NEN, Boston, Mass.; specific activity 6.7 Ci/mM), harvested with a multiple automatic sample harvester and processed for liquid scintillation counting. The results were expressed as arithmetic mean of cpm from four samples. In order to simplify the representation of data obtained with different animals, the results were pooled and calculated together and in some cases expressed as a ratio to control±SEM.
(§8) In a series of experiments, mice with involuted thymuses were treated in vivo with NCM, Thymosin α1, Thymosin fraction V, combinations of these factors, and saline or media controls. The spleens and thymuses were removed, the cells were tested for cell proliferation responses to stimulation in vitro with the interleukins (IL1, IL2, NCM) or with mitogens (PHA; ConA).

[4] = tested on: splenocytes; assay: Proliferative response (3H-thymidine) of splenocytes in vitro after in vivo treatment, hydrocortisone induced thymic involution in aged mice
Experimental: as §5, §1, §2, §3, §6, §7, §8

Thymosin α1 (SDAAVDTSSEITTKDLKEKKEVVEEAEN; not fully specified; ends and bridges not checked; UniProt P01252 2-29, looked up) [28 amino acid peptide initially extracted from bovine thymus and later synthesized]
SPLEEN WEIGHT (mg) Mean ± S.E.M. [1]: 127.66 ± 5.78 mg
THYMUS WEIGHT (mg) Mean ± S.E.M. [2]: 25.75 ± 4.45 mg
dose of optimal effects on thymocyte responses to interleukins and mitogen ([3]; FIG. 1, dose response 0.2 to 20 μg/animal/day in vivo): 5 μg/mouse
thymocyte responses in vitro to media, rIL-1, rIL-2 and NCM ([3]; FIG. 3, in vivo i.p. once per day for 5 days, Thymosin α1 5 μg/mouse, NCM 50 units IL-2 equivalence): increased many of the responses
thymocyte responses to mitogens PHA and ConA ([3]; FIG. 5, in vivo treatments as in FIG. 3): significantly augmented both responses
thymocyte responses to rIL-1, IL-2, NCM or ConA ([3]; FIGS. 7 and 9, ratio to saline treated control, Thymosin α1 5 μg/mouse/day, TF5 100 μg/mouse/day, NCM 50 units): augmented all of the responses
dose of optimal effects on splenocyte responses to interleukins and mitogen ([4]; FIG. 2, dose response 0.2 to 20 μg/animal/day in vivo): 5 μg/mouse
splenocyte responses in vitro to media, rIL-1, rIL-2 and NCM ([4]; FIG. 4, in vivo i.p. once per day for 5 days, Thymosin α1 5 μg/mouse, NCM 50 units IL-2 equivalence): increased many of the responses
splenocyte responses to mitogens PHA and ConA ([4]; FIG. 6, in vivo treatments as in FIG. 3): significantly augmented both responses
splenocyte responses to rIL-1, IL-2, NCM or ConA ([4]; FIGS. 8 and 10, ratio to saline treated control, Thymosin α1 5 μg/mouse, TF5 100 μg/mouse, NCM 50 units): augmented all of the responses
